Measurements as given in PMC12027946, “Ionic and Non-Ionic Counterparts Based on Bis(Uracilyl)Alkane Moiety with Highest Selectivity Towards Acetylcholinesterase for Protection Against Organophosphate Poisoning and Treating Alzheimer’s Disease” (International Journal of Molecular Sciences, 2025).
Where two headings read alike, the source gives them in different places.

Tests used:
mice = experiment: Rotarod test; format: in vivo; settings: 3c 5 mg/kg i.p.; control 154 ± 20 s, p = 0.137
Description: The ability of effective doses of bisuracil 2b (0.01 mg/kg) and bisuracil 3c (5 mg/kg) to induce incapacitation was evaluated. Locomotor activity, measured as the total distance travelled, and exploratory behaviour, assessed by the number of rearings (head inclinations) and head dips, were evaluated using the open-field test. Additionally, motor coordination was analysed using the rotarod test, where the ability of mice to stay on the rotating rod was recorded. The compounds were administered i.p. 30 min before testing, while the control group received an equivalent volume of the vehicle.
To analyse motor function, rotarod and open-field tests were carried out. Mice were randomly divided into 3 groups (n = 12): a control group of mice and groups of mice treated with tested compounds. Tests were conducted 1 h after compound exposure. To assess motor function, mice were first placed on a rotarod treadmill (Ugo Basile, Italy). Rotation speed was fixed at 15 rpm, and the time that each mouse remained on the rod was recorded as the score, with a maximum duration of 300 s per trial. Each mouse underwent 3 trials. […] To assess motor function, the distance travelled in centimetres in the arena was measured, using VideoMot2 software (Version 8.02 (131) 03-07-17 (TSE Systems, Bad Homburg, Germany).

[1] = Acute toxicity, single i.p. injection; settings: CD-1, mouse, in vivo, ip, mice
Description: Toxicological experiments were performed using a single i.p. injection of the tested compounds in CD-1 mice weighing 20–25 g. Stock solutions of the tested compounds were diluted in ethanol or water. The final ethanol dose was 100 mg/kg. Nine different doses of the tested compounds were used with 12 mice per dose. Animals were observed 7 days after injection, and symptoms of toxicity were recorded.

human AChE = target: T1, human AChE (Homo sapiens, UniProt P22303); experiment: Inhibition constants (Dixon and Cornish–Bowden plots), AChE; format: biochemical
T1 construct: purchased Sigma-Aldrich
T1 sequence (P22303 32-614): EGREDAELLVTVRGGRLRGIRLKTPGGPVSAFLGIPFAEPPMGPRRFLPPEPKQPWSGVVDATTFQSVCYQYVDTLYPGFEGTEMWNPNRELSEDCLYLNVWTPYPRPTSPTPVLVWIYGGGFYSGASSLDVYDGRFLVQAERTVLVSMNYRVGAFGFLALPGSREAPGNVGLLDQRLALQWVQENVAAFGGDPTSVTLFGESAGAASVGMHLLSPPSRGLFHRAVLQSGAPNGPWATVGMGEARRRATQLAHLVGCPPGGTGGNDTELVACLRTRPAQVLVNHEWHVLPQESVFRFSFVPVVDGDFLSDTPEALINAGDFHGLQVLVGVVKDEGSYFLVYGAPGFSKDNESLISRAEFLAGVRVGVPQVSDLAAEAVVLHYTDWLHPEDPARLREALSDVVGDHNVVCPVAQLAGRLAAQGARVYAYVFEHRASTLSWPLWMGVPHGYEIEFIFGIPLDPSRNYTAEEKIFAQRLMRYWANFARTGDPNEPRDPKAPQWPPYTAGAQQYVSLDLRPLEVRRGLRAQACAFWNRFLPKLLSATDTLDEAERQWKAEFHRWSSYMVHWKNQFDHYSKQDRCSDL
Description: Experiments were performed using four different concentrations of ATCh as a substrate for AChE, and with BuTCh as a substrate for BuChE. According to the analysis of Dixon and Cornish–Bowden plots for bisuracil 2b, AChE and BuChE inhibition is of a mixed type characterised both by competitive inhibition (Kci) and uncompetitive inhibition (Kui) components. For AChE, Kci was determined to be 55.7 ± 8.1 pM while Kui = 156 ± 18 pM (Figure 3A,B), and Kci = 0.13 ± 0.02 mM while Kui = 0.7 ± 0.06 mM for BuChE (Figure 3C,D). Inhibition of AChE and BuChE by bisuracil 3c was of a mixed type. For the AChE constant, Kci was 0.7 ± 0.04 nM while Kui 4.45 ± 1.76 nM (Figure 4A,B); for the BuChE constant, Kci = 0.04 ± 0.007 мM while Kui = 0.68 ± 0.08 мM (Figure 4C,D).
A UV-1800 Shimadzu (Shimadzu Co., Kyoto, Japan) spectrophotometer was utilised to conduct the measurements. The final enzyme concentration in the assays was in the picomolar range. In order to ascertain the levels of spontaneous hydrolysis of the enzyme and substrate in the absence of an inhibitor, controls were performed for each substrate concentration. The change in absorption was then recorded over a period of three minutes. The inhibition constants were determined from a Dixon plot and Cornish–Bowden transformation.

For `CCN(CCCCCn1c(=O)ccn(CCCCCn2c(C)cc(=O)n(C)c2=O)c1=O)Cc1ccccc1C#N` [3c], the “mean fall time (rotarod)” value (mice) was 170 ± 19 s, the LD50 at 7 days ([1]; observed 7 days, read-out: LD50 (median lethal dose)) was 22.8 mg/kg and the LD50 at 7 days ([1]; read-out: LD50 95% confidence limits) was 15 to 28.7 mg/kg. The “Kui (uncompetitive inhibition constant), AChE” value (human AChE; ATCh as substrate) was 4.45 ± 1.76 nM, the Ki (human AChE; ATCh as substrate, read-out: Kci (competitive inhibition constant), AChE) was 0.7 ± 0.04 nM and the “type of AChE inhibition” value (human AChE; Dixon and Cornish–Bowden plots) was “mixed type”.
